Where “and” joins values, the source holds several entries; their conditions need not be identical. Identical values can stand only once.
Key:
S. furcifera adults = experiment: Y-tube olfactometer behavioral trials; format: in vivo, Sogatella furcifera; settings: odorant 50 µL/L vs hexane; adults
Procedure, shortened: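 Single S. furcifera adults (2 days post-emergence, starved 0.5 h) chose between odorant (100 µL of 50 µL/L on filter paper) and hexane control in a glass Y-tube, charcoal-filtered humidified air 300 mL/min per arm, 25 ± 1 °C, 50% RH. Choice scored if insect passed half an arm and stayed >1 min within 10 min; 45 insects per compound, chi-squared test.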

SfurOBP1 = SfurOBP1 (Sogatella furcifera, UniProt V5T8N5); experiment: biochemical; format: binding; settings: for Fluorescence competitive binding assay, fluorescence intensity: OBP1, three replicate columns
Procedure, shortened: (§1)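 In 50 mM Tris-HCl pH 7.4, odorants displace 1-NPN (2.0 µM) from 2.0 µM protein. Emission at 390–490 nm under 337 nm excitation is measured 2 min after competitor addition, in triplicate. Ki is obtained from IC50 and the 1-NPN dissociation constant.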

SfurOBP11 = SfurOBP11 (Sogatella furcifera, UniProt V5T6E3); experiment: biochemical; format: binding
Procedure, shortened: as §1

SfurOBP2 = SfurOBP2 (Sogatella furcifera, UniProt V5T759); experiment: biochemical; format: binding
Procedure, shortened: as §1

SfurOBP3 = SfurOBP3 (Sogatella furcifera, UniProt V5T818); experiment: biochemical; format: binding; settings: for Fluorescence competitive binding assay, fluorescence intensity: OBP3, three replicate columns;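 for Fluorescence competitive binding assay, fluorescence intensity: competitor odorant at 2 to 20 µM with protein and 1-NPN both 2.0 µM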
Procedure, shortened: as §1
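Throughout, for Fluorescence competitive binding assay, fluorescence intensity: competitor odorant at 2 to 20 µM with protein and 1-NPN both 2.0 µM.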

SfurOBP2, sequence (V5T759 entry or part of it): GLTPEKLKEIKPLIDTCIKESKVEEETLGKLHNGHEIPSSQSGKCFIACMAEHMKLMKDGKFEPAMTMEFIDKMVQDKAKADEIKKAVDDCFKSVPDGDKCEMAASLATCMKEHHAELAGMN
SfurOBP3, sequence (V5T818 entry or part of it): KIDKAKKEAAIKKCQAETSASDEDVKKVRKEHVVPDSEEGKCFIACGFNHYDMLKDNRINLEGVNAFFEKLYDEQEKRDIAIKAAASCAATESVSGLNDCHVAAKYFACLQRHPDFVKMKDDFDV
SfurOBP11, sequence (V5T6E3 entry or part of it): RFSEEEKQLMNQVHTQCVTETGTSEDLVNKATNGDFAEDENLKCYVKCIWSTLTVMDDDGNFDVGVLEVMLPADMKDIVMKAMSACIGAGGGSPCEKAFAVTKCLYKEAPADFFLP
SfurOBP1, sequence (V5T8N5 entry or part of it): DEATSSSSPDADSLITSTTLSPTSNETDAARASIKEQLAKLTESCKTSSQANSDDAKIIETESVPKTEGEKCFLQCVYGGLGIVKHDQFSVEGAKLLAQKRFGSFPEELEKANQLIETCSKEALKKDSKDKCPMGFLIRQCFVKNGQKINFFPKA

C=CC(C)(O)CCC=C(C)C (stereo not drawn) [linalool]
number of insects choosing hexane arm (S. furcifera adults): 14 | number of insects choosing volatilies arm (S. furcifera adults): 14 | number of insects failed (no choice) (S. furcifera adults): 12 | IC50 (SfurOBP1): > 20 µM | Fluorescence competitive binding assay, fluorescence intensity (SfurOBP1; ligand concentration 2 (μM)): 6084 and 5184 and 7029 | Fluorescence competitive binding assay, fluorescence intensity (SfurOBP1; ligand concentration 4 (μM)): 5717 and 6456 and 6034 | Fluorescence competitive binding assay, fluorescence intensity (SfurOBP1; ligand concentration 6 (μM)): 5873 and 6101 and 6679 | Fluorescence competitive binding assay, fluorescence intensity (SfurOBP1; ligand concentration 8 (μM)): 5733 and 6957 and 6693 | Fluorescence competitive binding assay, fluorescence intensity (SfurOBP1; ligand concentration 10 (μM)): 5847 and 5923 and 6121 | Fluorescence competitive binding assay, fluorescence intensity (SfurOBP1; ligand concentration 12 (μM)): 6065 and 6137 and 6412 | Fluorescence competitive binding assay, fluorescence intensity (SfurOBP1; ligand concentration 14 (μM)): 7822 and 5806 and 6262 | Fluorescence competitive binding assay, fluorescence intensity (SfurOBP1; ligand concentration 16 (μM)): 5059 and 6382 and 5339 | Fluorescence competitive binding assay, fluorescence intensity (SfurOBP1; ligand concentration 18 (μM)): 6537 and 6532 and 5815 | Fluorescence competitive binding assay, fluorescence intensity (SfurOBP1; ligand concentration 20 (μM)): 6056 and 5740 and 5464 | IC50 (SfurOBP11): > 20 µM | Fluorescence intensity, fluorescence competitive binding assay, OBP11 (SfurOBP11; ligand concentration 2, replicate 1): 34595 | Fluorescence intensity, fluorescence competitive binding assay, OBP11 (SfurOBP11; ligand concentration 2, replicate 2): 35145 | Fluorescence intensity, fluorescence competitive binding assay, OBP11 (SfurOBP11; ligand concentration 2, replicate 3): 35691 | Fluorescence intensity, fluorescence competitive binding assay, OBP11 (SfurOBP11; ligand concentration 4, replicate 1): 34126 | Fluorescence intensity, fluorescence competitive binding assay, OBP11 (SfurOBP11; ligand concentration 4, replicate 2): 38977 | Fluorescence intensity, fluorescence competitive binding assay, OBP11 (SfurOBP11; ligand concentration 4, replicate 3): 36540 | Fluorescence intensity, fluorescence competitive binding assay, OBP11 (SfurOBP11; ligand concentration 6, replicate 1): 35921 | Fluorescence intensity, fluorescence competitive binding assay, OBP11 (SfurOBP11; ligand concentration 6, replicate 2): 34102 | Fluorescence intensity, fluorescence competitive binding assay, OBP11 (SfurOBP11; ligand concentration 6, replicate 3): 34901 | Fluorescence intensity, fluorescence competitive binding assay, OBP11 (SfurOBP11; ligand concentration 8, replicate 1): 31879 | Fluorescence intensity, fluorescence competitive binding assay, OBP11 (SfurOBP11; ligand concentration 8, replicate 2): 34190 | Fluorescence intensity, fluorescence competitive binding assay, OBP11 (SfurOBP11; ligand concentration 8, replicate 3): 34940 | Fluorescence intensity, fluorescence competitive binding assay, OBP11 (SfurOBP11; ligand concentration 10, replicate 1): 32152 | Fluorescence intensity, fluorescence competitive binding assay, OBP11 (SfurOBP11; ligand concentration 10, replicate 2): 33920 | Fluorescence intensity, fluorescence competitive binding assay, OBP11 (SfurOBP11; ligand concentration 10, replicate 3): 34003 | Fluorescence intensity, fluorescence competitive binding assay, OBP11 (SfurOBP11; ligand concentration 12, replicate 1): 31331 | Fluorescence intensity, fluorescence competitive binding assay, OBP11 (SfurOBP11; ligand concentration 12, replicate 2): 31885 | Fluorescence intensity, fluorescence competitive binding assay, OBP11 (SfurOBP11; ligand concentration 12, replicate 3): 32147 | Fluorescence intensity, fluorescence competitive binding assay, OBP11 (SfurOBP11; ligand concentration 14, replicate 1): 27789 | Fluorescence intensity, fluorescence competitive binding assay, OBP11 (SfurOBP11; ligand concentration 14, replicate 2): 28913 | Fluorescence intensity, fluorescence competitive binding assay, OBP11 (SfurOBP11; ligand concentration 14, replicate 3): 26664 | Fluorescence intensity, fluorescence competitive binding assay, OBP11 (SfurOBP11; ligand concentration 16, replicate 1): 26184 | Fluorescence intensity, fluorescence competitive binding assay, OBP11 (SfurOBP11; ligand concentration 16, replicate 2): 25844 | Fluorescence intensity, fluorescence competitive binding assay, OBP11 (SfurOBP11; ligand concentration 16, replicate 3): 25199 | Fluorescence intensity, fluorescence competitive binding assay, OBP11 (SfurOBP11; ligand concentration 18, replicate 1): 30237 | Fluorescence intensity, fluorescence competitive binding assay, OBP11 (SfurOBP11; ligand concentration 18, replicate 2): 30011 | Fluorescence intensity, fluorescence competitive binding assay, OBP11 (SfurOBP11; ligand concentration 18, replicate 3): 30462 | Fluorescence intensity, fluorescence competitive binding assay, OBP11 (SfurOBP11; ligand concentration 20, replicate 1): 29291 | Fluorescence intensity, fluorescence competitive binding assay, OBP11 (SfurOBP11; ligand concentration 20, replicate 2): 29263 | Fluorescence intensity, fluorescence competitive binding assay, OBP11 (SfurOBP11; ligand concentration 20, replicate 3): 28048 | IC50 (SfurOBP2): > 20 µM | Fluorescence competitive binding assay, OBP2 (raw fluorescence reading) (SfurOBP2; ligand concentration 2 (unit not given), replicate column 1 of 3): 22475 | Fluorescence competitive binding assay, OBP2 (raw fluorescence reading) (SfurOBP2; ligand concentration 2 (unit not given), replicate column 2 of 3): 19579 | Fluorescence competitive binding assay, OBP2 (raw fluorescence reading) (SfurOBP2; ligand concentration 2 (unit not given), replicate column 3 of 3): 19869 | Fluorescence competitive binding assay, OBP2 (raw fluorescence reading) (SfurOBP2; ligand concentration 4 (unit not given), replicate column 1 of 3): 18324 | Fluorescence competitive binding assay, OBP2 (raw fluorescence reading) (SfurOBP2; ligand concentration 4 (unit not given), replicate column 2 of 3): 21526 | Fluorescence competitive binding assay, OBP2 (raw fluorescence reading) (SfurOBP2; ligand concentration 4 (unit not given), replicate column 3 of 3): 18676 | Fluorescence competitive binding assay, OBP2 (raw fluorescence reading) (SfurOBP2; ligand concentration 6 (unit not given), replicate column 1 of 3): 20143 | Fluorescence competitive binding assay, OBP2 (raw fluorescence reading) (SfurOBP2; ligand concentration 6 (unit not given), replicate column 2 of 3): 19481 | Fluorescence competitive binding assay, OBP2 (raw fluorescence reading) (SfurOBP2; ligand concentration 6 (unit not given), replicate column 3 of 3): 21546 | Fluorescence competitive binding assay, OBP2 (raw fluorescence reading) (SfurOBP2; ligand concentration 8 (unit not given), replicate column 1 of 3): 18566 | Fluorescence competitive binding assay, OBP2 (raw fluorescence reading) (SfurOBP2; ligand concentration 8 (unit not given), replicate column 2 of 3): 19629 | Fluorescence competitive binding assay, OBP2 (raw fluorescence reading) (SfurOBP2; ligand concentration 8 (unit not given), replicate column 3 of 3): 19018 | Fluorescence competitive binding assay, OBP2 (raw fluorescence reading) (SfurOBP2; ligand concentration 10 (unit not given), replicate column 1 of 3): 17948 | Fluorescence competitive binding assay, OBP2 (raw fluorescence reading) (SfurOBP2; ligand concentration 10 (unit not given), replicate column 2 of 3): 18880 | Fluorescence competitive binding assay, OBP2 (raw fluorescence reading) (SfurOBP2; ligand concentration 10 (unit not given), replicate column 3 of 3): 17034 | Fluorescence competitive binding assay, OBP2 (raw fluorescence reading) (SfurOBP2; ligand concentration 12 (unit not given), replicate column 1 of 3): 17194 | Fluorescence competitive binding assay, OBP2 (raw fluorescence reading) (SfurOBP2; ligand concentration 12 (unit not given), replicate column 2 of 3): 16713 | Fluorescence competitive binding assay, OBP2 (raw fluorescence reading) (SfurOBP2; ligand concentration 12 (unit not given), replicate column 3 of 3): 16298 | Fluorescence competitive binding assay, OBP2 (raw fluorescence reading) (SfurOBP2; ligand concentration 14 (unit not given), replicate column 1 of 3): 15375 | Fluorescence competitive binding assay, OBP2 (raw fluorescence reading) (SfurOBP2; ligand concentration 14 (unit not given), replicate column 2 of 3): 15983 | Fluorescence competitive binding assay, OBP2 (raw fluorescence reading) (SfurOBP2; ligand concentration 14 (unit not given), replicate column 3 of 3): 16080 | Fluorescence competitive binding assay, OBP2 (raw fluorescence reading) (SfurOBP2; ligand concentration 16 (unit not given), replicate column 1 of 3): 16976 | Fluorescence competitive binding assay, OBP2 (raw fluorescence reading) (SfurOBP2; ligand concentration 16 (unit not given), replicate column 2 of 3): 14612 | Fluorescence competitive binding assay, OBP2 (raw fluorescence reading) (SfurOBP2; ligand concentration 16 (unit not given), replicate column 3 of 3): 14664 | Fluorescence competitive binding assay, OBP2 (raw fluorescence reading) (SfurOBP2; ligand concentration 18 (unit not given), replicate column 1 of 3): 15874 | Fluorescence competitive binding assay, OBP2 (raw fluorescence reading) (SfurOBP2; ligand concentration 18 (unit not given), replicate column 2 of 3): 15679 | Fluorescence competitive binding assay, OBP2 (raw fluorescence reading) (SfurOBP2; ligand concentration 18 (unit not given), replicate column 3 of 3): 13833 | Fluorescence competitive binding assay, OBP2 (raw fluorescence reading) (SfurOBP2; ligand concentration 20 (unit not given), replicate column 1 of 3): 14349 | Fluorescence competitive binding assay, OBP2 (raw fluorescence reading) (SfurOBP2; ligand concentration 20 (unit not given), replicate column 2 of 3): 13969 | Fluorescence competitive binding assay, OBP2 (raw fluorescence reading) (SfurOBP2; ligand concentration 20 (unit not given), replicate column 3 of 3): 12873 | IC50 (SfurOBP3): > 20 µM | Fluorescence competitive binding assay, fluorescence intensity (SfurOBP3; ligand concentration 2): 45666 and 44893 and 46206 | Fluorescence competitive binding assay, fluorescence intensity (SfurOBP3; ligand concentration 4): 43749 and 45410 and 42660 | Fluorescence competitive binding assay, fluorescence intensity (SfurOBP3; ligand concentration 6): 44364 and 44740 and 45115 | Fluorescence competitive binding assay, fluorescence intensity (SfurOBP3; ligand concentration 8): 41369 and 43894 and 46339 | Fluorescence competitive binding assay, fluorescence intensity (SfurOBP3; ligand concentration 10): 41142 and 43565 and 45619 | Fluorescence competitive binding assay, fluorescence intensity (SfurOBP3; ligand concentration 12): 38618 and 37689 and 38140 | Fluorescence competitive binding assay, fluorescence intensity (SfurOBP3; ligand concentration 14): 35045 and 37361 and 38462 | Fluorescence competitive binding assay, fluorescence intensity (SfurOBP3; ligand concentration 16): 32691 and 35765 and 36425 | Fluorescence competitive binding assay, fluorescence intensity (SfurOBP3; ligand concentration 18): 35273 and 34668 and 35335 | Fluorescence competitive binding assay, fluorescence intensity (SfurOBP3; ligand concentration 20): 34176 and 32081 and 34822

Source: PMC6409085, “Three odorant-binding proteins are involved in the behavioral response of Sogatella furcifera to rice plant volatiles” (PeerJ, 2019)
